The text below walks through data of patent US5968526A, “T cell epitopes of the major allergens from Dermatophagoides (house dust mite)” (Immulogic Pharamaceutical Corporation, priority 1995, dated 1999).

Assay [1] relates to T cell lines primed in vitro to Der p I. Nature of the assay: secondary proliferation of Der p I-primed T cell lines (Examples V, VII, XI). It is filed as cell-based, human. Particulars: for T cell reactivity: overlapping Der p I peptides. Put shortly:
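PBMC were primed with native or recombinant Der p I (10 or 20 μg/ml) for 7 days, then expanded with IL-2 and IL-4. Resting T cells (2×10^4) were cultured 3 days with irradiated autologous EBV-B cells or PBMC and titrated protein or peptides, then pulsed 16 h with 1 μCi ³H-thymidine. S.I. was peak-response CPM over medium-only CPM, with S.I. ≥2.0 scored positive.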

For assay [2], the system named is T cell lines primed in vitro to Der f I. In words: secondary proliferation of Der f I-primed T cell lines (Examples VI, VII, XI). Format: cell-based, human. Particulars: for T cell response to Der p I peptides: Der f I primed, 8 positive experiments, FIG. 8. A digest of the protocol:
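PBMC from house dust mite-allergic patients were primed in vitro with recombinant or affinity-purified Der f I at 20 μg/ml (or 10 μg/ml), then rechallenged with Der f I peptides. Antigen-presenting cells were x-irradiated autologous PBMC (3500 Rads) or EBV-transformed B cells (25,000 Rads). Read-out was T cell proliferation.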

Consider “DP I-21.2: Der p I peptide; unique peptide (SINGNAPAEIDLRQMRTVTPIRMQ)”, for which, in assay [1] (33 positive experiments, FIG. 13), the “T cell response to selected Der p I peptides” value is “respond significantly”. For the same substance, the “positivity index (P.I.)” value in assay [1] (mean S.I. × percent responders, 33 patients) is “at least 150”.

As for “DP I-3: Der p I peptide (TVTPIRMQGGCGSCWAFSGVAATESAYLA)”, in assay [1] (33 positive experiments), the T cell reactivity entry is “significant regions of T cell reactivity”. Moreover, in assay [2], the “T cell response to Der p I peptides” value was “respond significantly”.

Consider “DP I-1: Der p I peptide, amino acid residues 1-20 (TNACSINGNAPAEIDLRQMR)”, for which the “percent of positive responses (S.I. of at least 2)” value in assay [1] (33 patients) worked out at 73%. In addition, in assay [1] (33 positive experiments), the T cell reactivity entry was “significant regions of T cell reactivity”. For the same substance, the “T cell response to Der p I peptides” value in assay [2] is on record as “respond significantly”.

As to “DF I-22.2: VAATESAYLAYRNTSLDLSEQELVD, amino acid residues 40-64 of Der f I”, in assay [1] (Der p I primed, 30 positive experiments, FIG. 15a), the “T cell response to selected Der f I peptides” value was “respond significantly”. Besides, in assay [2] (9 patients, FIG. 16a / 16b), the “stimulation index, rank in group” value was “highest stimulation index”.
